Data: PMC4975872 (Journal of biomolecular screening, 2014)
Where two headings read alike, the source gives them in different places. Each block holds one molecule with its values, some of them ahead of it.

Tests used:
[1] = test system: ERK/β-arrestin interaction; assay: ERK/β-arrestin interaction LinkLight assay, cytokine receptor response; format: cell-based, human; settings: for S/B ratio: 0.1 μg/ml cytokine, Fig. S5; for EC50, stimulation of ERK/β-arrestin interaction signals by cytokines: endogenous cytokine receptors in U2OS cells, serum-free DMEM, 90 min, 37°C
[2] = test system: ERK/β-arrestin interaction; assay: ERK/β-arrestin interaction LinkLight assay, RTK ligand responses; format: cell-based, human; settings: endogenous RTKs in U2OS cells, serum-free DMEM, 90 min, 37°C
[3] = test system: ERK/β-arrestin interaction; settings: 10 μM agonist, Fig. S5
[4] = test system: ERK/β-arrestin interaction; format: cell-based, human; settings: inhibitor 15 min in serum-free DMEM, then 5% FBS for 90 min
S1P (endogenous GPCR) = format: cell-based, U2OS; settings: read-out: EC50 values; n = 3
[5] = test system: ERK/β-arrestin interaction; format: cell-based, human; settings: antagonist 15 min, then 1 μM adrenaline for 90 min

- EC50, stimulation of ERK/β-arrestin interaction signals by cytokines [1]: 5.65 ng/mL
Molecule: TNFα
- S/B ratio [1]: 8.99 fold

- EC50, stimulation of luciferase signals by RTK ligands [2]: 3.87 ng/mL
Molecule: FGF-b: growth factor FGF-basic, RTK ligand

Molecule: NCCc1ccc(O)c(O)c1 [dopamine]
- S/B ratio [3]: 3.66 fold

Molecule: Cc1nc(Nc2ncc(C(=O)Nc3c(C)cccc3Cl)s2)cc(N2CCN(CCO)CC2)n1 [dasatinib]
- inhibition of FBS-induced ERK/β-arrestin interaction signals [4]: blocked

Molecule: CNC[C@H](O)c1ccc(O)c(O)c1 [adrenaline]
- S/B ratio [3]: 3.78 fold

- EC50, stimulation of luciferase signals by RTK ligands [2]: 3.75 ng/mL
Molecule: EGF: epidermal growth factor, RTK ligand

- EC50, stimulation of ERK/β-arrestin interaction signals by cytokines [1]: 2.8 ng/mL
Molecule: IL1β: recombinant human cytokine IL1β
- S/B ratio [1]: 14.5 fold

- EC50 (S1P (endogenous GPCR)): 337 nM
Molecule: CCCCCCCCCCCCC/C=C/[C@@H](O)[C@@H](N)COP(=O)(O)O [S1P, sphingosine 1-phosphate]

- inhibition of FBS-induced ERK/β-arrestin interaction signals [4]: did not block
Molecule: O=C1Nc2ccc(I)cc2/C1=C/c1cc(Br)c(O)c(Br)c1 [GW5074]

Molecule: CN(C)CCN(C)CCc1ccc(Cl)c(Cl)c1 [BD-1047]
- inhibition of GPCR agonist-induced ERK/β-arrestin interaction signals [5]: inhibit

- inhibition of FBS-induced ERK/β-arrestin interaction signals [4]: did not block
Molecule: O=C(NOCC1CC1)c1ccc(F)c(F)c1Nc1ccc(I)cc1Cl [CI-1040]
